Laboratory results as given in patent publication US6368651B1, “Use of additives to modify the taste characteristics of N-neohexyl-α-aspartyl-L-phenylalanine methyl ester” (The NutraSweet Company, priority 1999, dated 2002).
Where a name gives a salt, the structure may show the parent alone. Where a SMILES comes first, the peptide text is derived from it.

Experiments:
[1] = Taste evaluation in neotame-sweetened cola-flavored beverage; settings: for taste characteristic imparted by neotame / taste compared to neotame-sweetened cola-flavored beverage / taste of beverage across tested concentrations: cola; for effectiveness as taste modifying ingredient: test cola-beverage formulation, concentration not given
Method: When a neotame salt was used as a taste modifying/sweetening ingredient, the neotame salt as added in an amount sufficient to provide about 15 ppm to about 25 ppm neotame (e.g., about 0.0028 g of a potassium neotame salt would be used to provide 100 ml of a 25 ppm neotame solution). The taste modifying ingredient was dissolved in the sweetened beverage and the beverage was allowed to stand overnight at room temperature prior to evaluation. Evaluations of the cola-flavored beverages were conducted using a beverage containing water, sodium benzoate (0.16%), phosphoric acid (0.22%), citric acid (0.05%), trisodium citrate (0.08%), caffeine (0.03%), Flavor 28 (1.72%), sweetened with neotame in an amount of about 0.0015% to about 0.0025% (15 ppm to 25 ppm), adjusted to pH 3.2 using sodium citrate.

[2] = Taste evaluation of solid tabletop sweetener in whitened, brewed coffee beverage; settings: for effectiveness as taste modifying ingredient: tabletop sweetener in a whitened coffee beverage, concentration not given
Method: The following examples 51-78 are directed to solid tabletop sweetener preparations, specifically sachet or packet preparations, comprising mixtures of neotame, one or more taste modifying ingredients and a bulking agent. Taste evaluations were conducted on sweetened coffee or tea beverages prepared by dissolving the solid tabletop sweetener (total weight of 1.00 g) in a cup of brewed coffee or tea. The concentration of the ingredients in the tabletop sweetener is expressed as a percentage by weight, whereas the concentration of the ingredients in the beverage is expressed as parts per million (ppm) or parts per trillion (ppt). The beverages were prepared such that the concentration of neotame in sweetened, whitened coffee beverage was approximately 3-5 ppm and the concentration of neotame in sweetened tea was approximately 5-7 ppm.

[3] = Taste evaluation in neotame-sweetened hot cocoa beverage
[4] = Taste evaluation in neotame-sweetened reconstituted powdered soft drink
[5] = Taste evaluation in neotame-sweetened gelatin dessert; settings: glycerin 8.4 ppm
[6] = Taste evaluation in neotame-sweetened strawberry-flavored yogurt; settings: serine 25 ppm
[7] = on a weight basis; cited from earlier work

## polysorbate 60
[1]; polysorbate 60 10 to 15 ppm
  taste characteristic imparted by neotame: positively affected
[2]; polysorbate 60 0.05% to 0.10% by weight (beverage 2.08 to 4.2 ppm), neotame 3.75 ppm, Unidex
  taste characteristic imparted by neotame: positively affected
[2]
  effectiveness as taste modifying ingredient: effective

## COc1ccc(CCC(=O)c2c(O)cc(O[C@@H]3O[C@H](CO)[C@@H](O)[C@H](O)[C@H]3O[C@@H]3O[C@@H](C)[C@H](O)[C@@H](O)[C@H]3O)cc2O)cc1O [neohesperidin dihydrochalcone]
[1]; NHDC 3 ppm
  taste characteristic imparted by neotame: positively affected
[2]; neohesperidin dihydrochalcone 0.040% to 0.048% by weight (beverage 1.68 to 2.0 ppm), neotame 3.75 ppm, Unidex
  taste characteristic imparted by neotame: positively affected
[3]; neohesperidin dihydrochalcone 2 to 3 ppm
  taste characteristic imparted by neotame: positively affected
[4]; neohesperidin dihydrochalcone 2 to 3 ppm, reconstituted punch or lemonade flavored powdered soft drinks
  taste characteristic imparted by neotame: positively affected

## neotame-phosphate salt
[1]; neotame-phosphate salt as sweetener
  taste compared to neotame-sweetened cola-flavored beverage: improved taste

## OC[C@@H](O)[C@H](O)[C@@H](O)CO [xylitol]
[1]
  effectiveness as taste modifying ingredient: ineffective

## OC[C@@H](O)[C@@H](O)CO [erythritol]
[1]; erythritol 200 ppm to 10,000 ppm
  taste characteristic imparted by neotame: positively affected

## C[C@@H]1O[C@@H](O[C@H]2[C@H](Oc3cc(O)c4c(c3)O[C@H](c3ccc(O)cc3)CC4=O)O[C@H](CO)[C@@H](O)[C@@H]2O)[C@H](O)[C@H](O)[C@H]1O [naringin]
[1]
  effectiveness as taste modifying ingredient: ineffective

## [Ca+2].[Cl-].[Cl-] [calcium chloride]
[2]; calcium chloride 0.072% by weight (beverage 3 ppm), neotame 3.75 ppm, Unidex
  taste characteristic imparted by neotame: positively affected

## [Cl-].[Na+] [sodium chloride]
[1]; sodium chloride 5 to 50 ppm
  taste characteristic imparted by neotame: positively affected
[1]; sodium chloride 10 ppm
  taste of beverage across tested concentrations: best tasting beverage

## neotame-monocalcium phosphate
[1]
  effectiveness as taste modifying ingredient: ineffective

## O=C1NS(=O)(=O)c2ccccc21 [saccharin]
[1]; saccharin 20 to 150 ppm
  taste characteristic imparted by neotame: positively affected
[1]; saccharin 100 ppm
  taste of beverage across tested concentrations: best tasting beverage
[2]; saccharin 1.32% by weight (beverage 5.5 ppm), neotame 3.75 ppm, Unidex
  taste characteristic imparted by neotame: positively affected
[3]; saccharin 20 to 40 ppm
  taste characteristic imparted by neotame: positively affected
[4]; saccharin 20 to 40 ppm, reconstituted punch or lemonade-flavored powdered soft drink
  taste characteristic imparted by neotame: positively affected

## Cn1c(=O)c2c(ncn2C)n(C)c1=O [caffeine]
[1]; caffeine 140 to 425 ppm
  taste characteristic imparted by neotame: positively affected

## CC1=CC(=O)[N-]S(=O)(=O)O1.[K+] [acesulfame-K]
[1]; acesulfame-K 20 to 40 ppm, neotame 15-25 ppm
  taste characteristic imparted by neotame: positively affected
[3]; acesulfame-K 40 to 100 ppm
  taste characteristic imparted by neotame: positively affected
[4]; acesulfame-K 40 to 100 ppm, reconstituted punch or lemonade-flavored powdered soft drink
  taste characteristic imparted by neotame: positively affected

## [Cl-].[K+] [potassium chloride]
[1]
  effectiveness as taste modifying ingredient: ineffective

## OCC(O)CO [glycerol]
[1]; glycerol 15 ppm to 2,000 ppm
  taste characteristic imparted by neotame: positively affected
[2]; glycerol 0.04% to 0.2% by weight (beverage 1.7 to 8.3 ppm), neotame 3.3 ppm, Unidex
  taste characteristic imparted by neotame: positively affected
[5]
  taste characteristic imparted by neotame: positively affected
[4]; glycerin 4 to 35 ppm, reconstituted punch-flavored powdered soft drink
  taste characteristic imparted by neotame: positively affected

## C=C[C@H]1C[N@@]2CC[C@H]1C[C@H]2[C@H](O)c1ccnc2ccc(OC)cc12 [quinine sulfate]
[1]; quinine sulfate 0.01 to 1 ppm
  taste characteristic imparted by neotame: positively affected

## polysorbate 65
[1]; polysorbate 65 10 to 15 ppm
  taste characteristic imparted by neotame: positively affected

## COC(=O)[C@H](Cc1ccccc1)NC(=O)[C@H](CC(=O)[O-])NCCC(C)(C)C.[Na+] [sodium-neotame salt]
[2]; sodium-neotame salt 0.09% by weight (beverage 3.75 ppm), Unidex
  taste characteristic imparted by neotame, compared to neotame-sweetened coffee beverage: positively affected

## Neotame-monopotassium phosphate
[1]
  effectiveness as taste modifying ingredient: ineffective

## COC(=O)[C@H](Cc1ccccc1)NC(=O)[C@H](CC(=O)[O-])NCCC(C)(C)C.COC(=O)[C@H](Cc1ccccc1)NC(=O)[C@H](CC(=O)[O-])NCCC(C)(C)C.[Ca+2] [calcium-neotame salt]
[1]; calcium-neotame salt as sweetener
  taste compared to neotame-sweetened cola-flavored beverage: improved taste
[2]; calcium-neotame salt 0.056% by weight (beverage 2.33 ppm), Unidex
  taste characteristic imparted by neotame, compared to neotame-sweetened coffee beverage: positively affected

## N[C@@H](CO)C(=O)O [serine]
[1]; serine 50 ppm
  taste characteristic imparted by neotame: positively affected
[4]; serine 5 ppm to 30 ppm, reconstituted strawberry-flavored powdered soft drink
  taste characteristic imparted by neotame: positively affected
[6]
  taste characteristic imparted by neotame: positively affected

## COC(=O)[C@H](Cc1ccccc1)NC(=O)[C@@H](N)CC(=O)O [aspartame] (H-Asp-Phe-OMe)
[1]; aspartame 20 to 40 ppm
  taste characteristic imparted by neotame: positively affected
[2]; aspartame 0.6% to 1.25% by weight (beverage 25 to 52 ppm), neotame 3.75 ppm, Unidex bulking agent
  taste characteristic imparted by neotame: positively affected
[3]; aspartame 100 ppm
  taste characteristic imparted by neotame: positively affected
[4]; aspartame 100 to 160 ppm, reconstituted punch or lemonade-flavored powdered soft drink
  taste characteristic imparted by neotame: positively affected

## COC(=O)[C@H](Cc1ccccc1)NC(=O)[C@H](CC(=O)O)NCCC(C)(C)C [neotame, N-[N-(3,3-dimethylbutyl)-L-α-aspartyl]-L-phenylalanine 1-methyl ester]
[7]
  sweetness relative to sucrose: approximately 8,000 times as sweet as sucrose

## OC[C@@H](O)[C@@H](O)[C@H](O)[C@@H](O)CO [sorbitol]
[1]
  effectiveness as taste modifying ingredient: ineffective

## CC1(C)[C@@H](O[C@H]2O[C@H](C(=O)O)[C@@H](O)[C@H](O)[C@H]2O[C@@H]2O[C@H](C(=O)O)[C@@H](O)[C@H](O)[C@H]2O)CC[C@]2(C)[C@H]3C(=O)C=C4[C@@H]5C[C@@](C)(C(=O)O)CC[C@]5(C)CC[C@@]4(C)[C@]3(C)CC[C@@H]12.N [monoammonium glycyrrhizinate]
[1]; monoammonium glycyrrhizinate 0.25 ppm
  taste characteristic imparted by neotame: positively affected

## OC[C@@H](O)[C@@H](O)[C@H](O)[C@H](O)CO [mannitol]
[1]; mannitol 100 ppm to 2,000 ppm
  taste characteristic imparted by neotame: positively affected

## CC1=CC(=O)NS(=O)(=O)O1.COC(=O)C(Cc1ccccc1)NC(=O)C(CC(=O)O)NCCC(C)(C)C (centres unmarked) [acesulfame-neotame salt]
[1]; acesulfame-neotame salt 40 ppm
  taste compared to neotame-sweetened cola-flavored beverage: improved taste

## Cc1occc(=O)c1O [maltol]
[2]; maltol 0.035% by weight (beverage 1.44 ppm), neotame 3.75 ppm, Unidex
  taste characteristic imparted by neotame: positively affected

## thaumatin
[2]; thaumatin 0.12% by weight (beverage 5.0 ppm), neotame 3.75 ppm, Unidex
  taste characteristic imparted by neotame: positively affected

## N[C@@H](Cc1ccc(O)cc1)C(=O)O [L-tyrosine]
[1]; L-tyrosine 15 to 50 ppm
  taste characteristic imparted by neotame: positively affected
[2]; L-tyrosine 0.288% by weight (beverage 12 ppm), neotame 3.75 ppm, Unidex
  taste characteristic imparted by neotame: positively affected
[4]; tyrosine 35 ppm, reconstituted punch-flavored powdered soft drink
  taste characteristic imparted by neotame: positively affected

## COC(=O)[C@H](Cc1ccccc1)NC(=O)[C@H](CC(=O)[O-])NCCC(C)(C)C.[K+] [potassium-neotame salt]
[1]; potassium-neotame salt as sweetener
  taste compared to neotame-sweetened cola-flavored beverage: improved taste
[2]; potassium-neotame salt 0.11% by weight (beverage 4.58 ppm), Unidex
  taste characteristic imparted by neotame, compared to neotame-sweetened coffee beverage: positively affected

## C[C@@H](O)[C@H](N)C(=O)O [threonine]
[1]; threonine 5 ppm to 30 ppm
  taste characteristic imparted by neotame: positively affected

## COC1=C(C)OC(C)C1=O (centres unmarked) [Mesifuran]
[1]
  effectiveness as taste modifying ingredient: not an effective taste modifying ingredient

## OC[C@H]1O[C@@](CO)(O[C@H]2O[C@H](CO)[C@@H](O)[C@H](O)[C@H]2O)[C@@H](O)[C@@H]1O [sucrose]
[1]; sucrose 2000 ppm to 4000 ppm
  taste characteristic imparted by neotame: positively affected

## beta cyclodextrin-neotame complex
[2]; beta cyclodextrin-neotame complex 1.409% by weight (beverage 58.7 ppm, neotame 3.3 ppm), Unidex
  taste characteristic imparted by neotame: positively affected

## CCc1occc(=O)c1O [ethyl maltol]
[2]; ethyl maltol 0.0482% by weight (beverage 2 ppm), neotame 3.75 ppm, Unidex
  taste characteristic imparted by neotame: positively affected

## COc1cc(C=O)ccc1O [vanillin]
[4]; vanillin 0.5 ppm, reconstituted punch and lemonade-flavored soft drinks
  taste characteristic imparted by neotame: positively affected

## polysorbate 80
[1]; polysorbate 80 10 to 15 ppm
  taste characteristic imparted by neotame: positively affected
[2]
  effectiveness as taste modifying ingredient: effective
